This is an account of results in patent US10512264B2, “Herbicidal mixtures” (Syngenta Participations AG, priority 2015, dated 2019).

What all share (format): in vivo
Common to all, as to conditions: 21 days after application

The subject of experiment [1] is Euphorbia heterophylla (EPHHL). As to the kind of experiment: Herbicidal action, pre-emergence glasshouse test, Euphorbia heterophylla. The method, then:
(§1) Seeds of a variety of test species were sown in standard soil in pots. After cultivation for one day (pre-emergence) under controlled conditions in a glasshouse (at 24/18° C., at day/night; 16 hours light; 65% humidity), the plants were sprayed with an aqueous spray solution derived from the formulation of the technical active ingredient dissolved in acetone plus formulation A containing 10.56 wt % Emulsogen EL, 42.22 wt % N-MethylPyrrolidon, 2.22 wt % DPG-Monoethyl ether at a 1:20 ratio (technical active ingredient:formulation A). To achieve the mixture treatments, the appropriate concentration of the mixture partner (commercial formulation) was added to the solution in order to achieve the desired experimental compound:mixture partner ratio).
(§2) After application, the test plants were grown in a glasshouse under controlled conditions (at 24/18° C. day/night; 16 hours light; 65% humidity) and watered twice daily. Herbicidal activity was evaluated 21 days after application in a 100-0 scale (100=total damage to plant; 0=no damage to plant).

Another experiment relates to Ipomea purpurea (PHBPU). The experiment is described as follows: Herbicidal action, pre-emergence glasshouse test, Ipomea purpurea. The method, then:
as §1, §2

For experiment [2], the system named is Ambrosia artimisifolia (AMBEL). As to the kind of experiment: Herbicidal action, pre-emergence glasshouse test, Ambrosia artimisifolia. The method, then:
as §1, §2

In experiment [3] the test system is Digitaria sanguinalis (DIGSA). As to the kind of experiment: Herbicidal action, pre-emergence glasshouse test, Digitaria sanguinalis. The protocol:
as §1, §2

For a further experiment, the system named is Setaria fabarii (SETFA). The experiment is described as follows: Herbicidal action, pre-emergence glasshouse test, Setaria fabarii. The method, then:
as §1, §2

A further experiment has as its system Bidens pilosa (BIDPI). The experiment is described as follows: Herbicidal action, pre-emergence glasshouse test, Bidens pilosa. The protocol:
as §1, §2

Several values for one entry are separate records, joined by “and”; a condition that tells them apart may be missing. Equal values may be shown once.

Turning to `COC1=C(C)C(O)N(c2cc(C(C)(C)C)ncn2)C1=O` (stereo not drawn) [Compound 1.1], the “Activity (% of untreated) Observed” value is listed as 12.5 % of untreated in experiment [1] (applied alone at 100 g/ha); 70 % of untreated in experiment [1] (applied alone at 250 g/ha); 0 % of untreated in the experiment with Ipomea purpurea (PHBPU) (applied alone at 100 g/ha); 5 % of untreated in the experiment with Ipomea purpurea (PHBPU) (applied alone at 250 g/ha); 37.5 % of untreated in experiment [2] (applied alone at 100 g/ha); 85 % of untreated in experiment [2] (applied alone at 250 g/ha). Further, the “Activity (% of untreated) Observed” value was 0 % of untreated in experiment [3] (alone 100 g/ha), 65 % of untreated in experiment [3] (alone 250 g/ha), 0 % of untreated with Setaria fabarii (SETFA) (alone 100 g/ha) and 70 % of untreated with Setaria fabarii (SETFA) (alone 250 g/ha).

Consider `COC1=C(C)C(O)N(c2cc(C(C)(C)C)on2)C1=O` (stereo not drawn) [Compound 1.2], for which the “Activity (% of untreated) Observed” value is on record as 10 % of untreated in experiment [1] (applied alone at 100 g/ha); 80 % of untreated in experiment [1] (applied alone at 250 g/ha); 2.5 % of untreated in the experiment on Ipomea purpurea (PHBPU) (applied alone at 100 g/ha); 35 % of untreated in the experiment on Ipomea purpurea (PHBPU) (applied alone at 250 g/ha); 42.5 % of untreated in experiment [2] (applied alone at 100 g/ha); 92.5 % of untreated in experiment [2] (applied alone at 250 g/ha). Besides, the “Activity (% of untreated) Observed” value in experiment [3] (alone 100 g/ha) is given as 0 % of untreated; in experiment [3] (alone 250 g/ha), 5 % of untreated; in the experiment with Setaria fabarii (SETFA) (alone 100 g/ha), 0 % of untreated; in the experiment with Setaria fabarii (SETFA) (alone 250 g/ha), 72.5 % of untreated; in the experiment on Bidens pilosa (BIDPI) (applied alone at 100 g/ha), 65 % of untreated; in the experiment on Bidens pilosa (BIDPI) (applied alone at 250 g/ha), 85 % of untreated.

Consider `CC1=C(Cl)C(=O)N(c2cc(C(C)(C)C)on2)C1O` (stereo not drawn) [Compound 1.3], for which the “Activity (% of untreated) Observed” value is on record as 5 % of untreated in experiment [1] (applied alone at 31.25 g/ha); 15 % of untreated in experiment [1] (applied alone at 62.5 g/ha); 35 % of untreated in experiment [1] (applied alone at 125 g/ha); 87.5 % of untreated in experiment [1] (applied alone at 250 g/ha); 100 % of untreated in experiment [1] (applied alone at 500 g/ha); 67.5 % of untreated in the experiment with Ipomea purpurea (PHBPU) (applied alone at 31.25 g/ha). The “Activity (% of untreated) Observed” value in the experiment on Ipomea purpurea (PHBPU) (applied alone at 62.5 g/ha) was 97.5 % of untreated; in the experiment on Ipomea purpurea (PHBPU) (applied alone at 125 g/ha), 40 % of untreated and 50 % of untreated; in the experiment with Ipomea purpurea (PHBPU) (applied alone at 250 g/ha) it was 85 % of untreated and 72.5 % of untreated; in the experiment on Ipomea purpurea (PHBPU) (applied alone at 500 g/ha), 100 % of untreated and 90 % of untreated; in experiment [2] (applied alone at 31.25 g/ha) it was 85 % of untreated; in experiment [2] (applied alone at 62.5 g/ha), 97 % of untreated. Besides, the “Activity (% of untreated) Observed” value was 85 % of untreated and 98.5 % of untreated in experiment [2] (applied alone at 125 g/ha); 86 % of untreated and 99 % of untreated in experiment [2] (applied alone at 250 g/ha); 98.5 % of untreated and 99 % of untreated in experiment [2] (applied alone at 500 g/ha); 0 % of untreated in experiment [3] (alone 31.25 g/ha); 65 % of untreated in experiment [3] (alone 62.5 g/ha); 99 % of untreated in experiment [3] (alone 125 g/ha). Further, the “Activity (% of untreated) Observed” value is 100 % of untreated in experiment [3] (alone 250 g/ha); 99.5 % of untreated and 99 % of untreated in experiment [3] (alone 500 g/ha); 90 % of untreated in the experiment with Setaria fabarii (SETFA) (alone 31.25 g/ha); 100 % of untreated with Setaria fabarii (SETFA) (alone 62.5 g/ha).

As for `CS(=O)(=O)c1ccc(C(=O)C2C(=O)CCCC2=O)c([N+](=O)[O-])c1` [Mesotrione, reference compound], the “Activity (% of untreated) Observed” value in the experiment on Ipomea purpurea (PHBPU) (applied alone at 25 g/ha) is 0 % of untreated; in the experiment with Ipomea purpurea (PHBPU) (applied alone at 50 g/ha) it was 0 % of untreated; in the experiment with Ipomea purpurea (PHBPU) (applied alone at 100 g/ha), 50 % of untreated; in experiment [2] (applied alone at 10 g/ha) it was 7.5 % of untreated; in experiment [2] (applied alone at 50 g/ha) it was 12.5 % of untreated; in experiment [2] (applied alone at 100 g/ha), 25 % of untreated. In addition, the “Activity (% of untreated) Observed” value in experiment [3] (alone 10 g/ha) was 45 % of untreated; in experiment [3] (alone 50 g/ha), 5 % of untreated; in experiment [3] (alone 100 g/ha) it was 0 % of untreated; with Setaria fabarii (SETFA) (alone 10 g/ha), 0 % of untreated; in the experiment with Setaria fabarii (SETFA) (alone 50 g/ha), 35 % of untreated; with Setaria fabarii (SETFA) (alone 100 g/ha), 57.5 % of untreated. For the same molecule, the “Activity (% of untreated) Observed” value is recorded as 10 % of untreated in the experiment with Bidens pilosa (BIDPI) (applied alone at 10 g/ha) and 30 % of untreated in the experiment with Bidens pilosa (BIDPI) (applied alone at 25 g/ha).

Consider Bicyclopyrone [reference compound], for which the “Activity (% of untreated) Observed” value in experiment [1] (applied alone at 10 g/ha) was 32.5 % of untreated; in experiment [1] (applied alone at 25 g/ha), 77.5 % of untreated and 95 % of untreated; in experiment [1] (applied alone at 50 g/ha), 98.5 % of untreated; in experiment [1] (applied alone at 100 g/ha), 100 % of untreated; in the experiment with Ipomea purpurea (PHBPU) (applied alone at 10 g/ha), 0 % of untreated; with Ipomea purpurea (PHBPU) (applied alone at 25 g/ha), 0 % of untreated. For the same molecule, the “Activity (% of untreated) Observed” value with Ipomea purpurea (PHBPU) (applied alone at 50 g/ha) is 0 % of untreated; in the experiment with Ipomea purpurea (PHBPU) (applied alone at 100 g/ha), 50 % of untreated; in experiment [2] (applied alone at 10 g/ha), 70 % of untreated; in experiment [2] (applied alone at 50 g/ha) it was 12.5 % of untreated; in experiment [2] (applied alone at 100 g/ha), 25 % of untreated; in experiment [3] (alone 10 g/ha), 87.5 % of untreated. Further, the “Activity (% of untreated) Observed” value in experiment [3] (alone 50 g/ha) is listed as 5 % of untreated; in experiment [3] (alone 100 g/ha), 0 % of untreated; with Setaria fabarii (SETFA) (alone 10 g/ha) it was 17.5 % of untreated; in the experiment on Setaria fabarii (SETFA) (alone 50 g/ha) it was 35 % of untreated; in the experiment with Setaria fabarii (SETFA) (alone 100 g/ha), 57.5 % of untreated; in the experiment on Bidens pilosa (BIDPI) (applied alone at 10 g/ha), 0 % of untreated. In addition, in the experiment with Bidens pilosa (BIDPI) (applied alone at 25 g/ha), the “Activity (% of untreated) Observed” value was 5 % of untreated.

Turning to S-Metolachlor, the “Activity (% of untreated) Observed” value was 65 % of untreated in experiment [3] (alone 80 g/ha), 100 % of untreated in experiment [3] (alone 200 g/ha), 85 % of untreated with Setaria fabarii (SETFA) (alone 80 g/ha) and 98.5 % of untreated in the experiment with Setaria fabarii (SETFA) (alone 200 g/ha).
